Test results published in patent US10772885B2, “Composition for treating ocular diseases and methods of usage and making” (REYOUNG (SUZHOU) BIOLOGY SCIENCE & TECHNOLOGY CO., LTD., priority 2016, dated 2020).

System: CNV
Assay: Laser photocoagulation-induced CNV in rats (FP/FFA, fluorescein leakage grading)
Type: in vivo, Brown Norway (BN) rats
Conditions: for Mean fluorescein leakage score vs model group / Ratio of grade 3 light spots vs model group: after treatment
Description: Specific-pathogen-free (SPF) grade Brown Norway (BN) rats, half male and half female, were treated with fundus laser photocoagulation, the date of which was counted as D0. At D8, 32 rats with similar areas of fluorescence leakage were selected, separated to 8 groups, with each group including 4 rats (half male and half female): • Group 1 is a model group without any treatment. • Group 2 is a positive control group, in which Conbercept was injected into the vitreous cavity of the rats' eyes at the dosage of 50 μg/eye and […]. • In group 3, both eyes of the rats were administered with nintedanib ethanesulfonate at the dosage of 125 μg/eye and 6 times per day from day 8 and day 15 (D8˜D15). • In group 4, both eyes of the rats were administered with nintedanib ethanesulfonate at the dosage of 25 μg/eye and 6 times per day from day 8 and day 15 (D8˜D15). • In group 5, both eyes of the rats were administered with nintedanib ethanesulfonate at the dosage of 5 μg/eye and 6 times per day from day 8 and day 15 (D8˜D15). • In group 6, both eyes of the rats were administered with nintedanib ethanesulfonate at the dosage of 2.5 μg/eye and 6 times per day from day 8 and day 15 (D8˜D15). • In group 7, both eyes of the rats were administered with nintedanib ethanesulfonate at the dosage of 0.5 μg/eye and 6 times per day from day 8 and day 15 (D8 D15). • In […], both eyes of the rats were administered with nintedanib ethanesulfonate at the dosage of 0.1 μg/eye and 6 times per day from day 8 and day 15 (D8 D15).
All rats were tested with fundus photography (“FP”) and fundus fluorescein angiography (“FFA”) one day before administration and 8 days after administration. The degree of CNV was graded according to the degree of fluorescence leakage. The results were used to evaluate the effect of nintedanib ethanesulfonate on rat CNV, the results of which are shown in FIG. 2.
The ratio is calculate by comparing the early-phase and last-phase fluorescein angiograms. The fluorescence leakage of the light spots was graded as follows: grade 0 (no leakage); grade 1 (slight leakage, leakage area is 1%-50% of the light spot size); grade 2 (moderate leakage, leakage area is 50%-100% of the light spot size); grade 3 (strong leakage, leakage area is larger than the light spot size). The ratios of light spots for certain grade were calculated as follows: Ratio of light spot (%)=(the number of light spot at certain grade÷the sum of four kinds of light spots)×100.
The mean fluorescein leakage score is calculated as follows: Mean fluorescein leakage score=[(number of grade 0 light spot×0)+(number of grade 1 light spot×1)+(number of grade 2 light spot×2)+(number of grade 3 light spot×3)]÷the sum of four kinds of light spots

[1] = groups 3-6 (125, 25, 5, 2.5 μg/eye)
[2] = positive control group, 50 μg/eye into the vitreous cavity

Molecule | Ratio of grade 1 light spots vs positive control group (all groups) | Ratios of light spots, mean fluorescein leakage score and development of CNV (eye drops at 125, 25, 5, 2.5, 0.5 μg/eye) | Ratio of grade 1 light spots vs positive control group (fifth group (5 μg/eye), p≤0.05) | Leakage vs positive control group (group 5 (5 μg/eye), p≤0.05) | Ratio of grade 3 light spots vs positive control group [1] | Mean fluorescein leakage score vs model group [1] | Ratio of grade 3 light spots vs model group [1] | Ratio of grade 1 light spots vs model group (groups 3-6 (125, 25, 5, 2.5 μg/eye), p≤0.05) | Adverse reactions (groups 3 and 4 (125 and 25 μg/eye, 6 times per day, D8-D15), some of the animals) | Inhibition of CNV in rats (groups 4-6 (25, 5, 2.5 μg/eye), 1 week after photocoagulation) | Mean fluorescein leakage score (groups 7 and 8 (0.5 and 0.1 μg/eye)) | Adverse reactions (other groups (5, 2.5, 0.5, 0.1 μg/eye, 6 times per day, D8-D15)) | Ratio of the level 0 and level 2 light spot vs positive control group (other groups, p>0.05) | Inhibition of leakage vs positive control group (printed: first group) | Leakage caused by CNV (rat, in vivo) | Mean fluorescein leakage score vs model group [2] | Ratio of grade 3 light spots vs model group [2]
COC(=O)c1ccc2c(c1)NC(=O)/C2=C(\Nc1ccc(N(C)C(=O)CN2CCN(C)CC2)cc1)c1ccccc1 [nintedanib ethanesulfonate] | increased | can inhibit | significantly increased | significantly decreased | lower | significantly decreased | significantly decreased | increased | corneal opacity | significantly inhibited the CNV | no statistically significant difference | did not experience any significantly adverse reactions | no significant difference | slightly stronger | can inhibit the leakage caused by CNV | – | –
Conbercept: Monoclonal antibody or fusion protein targeting VEGF, developed by a Chinese company and launched in 2013; positive control | – | – | – | – | – | – | – | – | – | – | – | – | – | – | – | significantly decreased | significantly decreased
